Reference: patent publication US5519025A, “4-indolylpiperazinyl derivatives” (American Home Products Corporation, priority 1995, dated 1996)

Molecular target: T1, 5-HT1A serotonin receptors (Rattus norvegicus, UniProt P19327)
T1 construct: rat hippocampal membrane homogenate; from tissue; host or cells: rat hippocampus, membrane homogenate
T1 sequence (P19327 1-422): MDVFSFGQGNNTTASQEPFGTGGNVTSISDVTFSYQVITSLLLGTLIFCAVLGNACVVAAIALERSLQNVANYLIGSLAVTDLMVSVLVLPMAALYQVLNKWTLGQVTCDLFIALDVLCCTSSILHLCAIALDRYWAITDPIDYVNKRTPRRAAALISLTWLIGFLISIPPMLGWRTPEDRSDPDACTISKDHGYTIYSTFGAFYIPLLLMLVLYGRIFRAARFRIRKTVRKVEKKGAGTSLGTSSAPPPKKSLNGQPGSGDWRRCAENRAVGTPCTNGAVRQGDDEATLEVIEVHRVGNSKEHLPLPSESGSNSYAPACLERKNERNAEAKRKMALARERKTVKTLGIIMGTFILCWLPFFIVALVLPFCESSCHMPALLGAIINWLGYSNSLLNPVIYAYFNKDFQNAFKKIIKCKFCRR
Assay: displacement of [3H] 8-OHDPAT from 5-HT1A serotonin receptors in rat hippocampal membrane homogenate
Type: binding
Settings: [3H] 8-OHDPAT displacement
Text: High affinity for the serotonin 5-HT1A receptor was established by testing the claimed compound's ability to displace [^3 H] 8-OHDPAT (dipropylaminotetralin) from the 5-HT1A serotonin receptors in rat hippocampal membrane homogenate following the procedure of B. S. Alexander and M. D. Wood, J. Pharm. Pharmacol. 1988, 40, 888-891. […] Based upon this receptor binding data, the compounds of this invention are characterized as anxiolytic and/or antidepressant agents useful in the treatment of depression and in alleviating anxiety. As such, the compounds may be administered neat or with a pharmaceutical carrier to a patient in need thereof. The pharmaceutical carrier may be solid or liquid.

For `CC1(C(=O)N[C@@H](CN2CCN(c3cccc4[nH]ccc34)CC2)c2ccccc2)CCCCC1` [Example 1], the IC50 was 0.00433 µM.

Compound `CC1(C(=O)N[C@H](CN2CCN(c3cccc4[nH]ccc34)CC2)c2ccccc2)CCCCC1` [Example 2] has an IC50 of 0.0355 µM.
